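Test compounds were applied to cells in 96-well plates for 48 hours at 5 doses. GI50 = concentration required for 50% inhibition of growth. Definition used: TGI = concentration required for complete inhibition of growth.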
How the values were obtained:
Assay in all cases: inhibition of tumour cell growth, NCI panel, 48 h
SNB-78 CNS = tested on: SNB-78 CNS
KM20L2 colon = tested on: KM20L2 colon
XF 498 CNS = tested on: XF 498 CNS
DLD-1 colon = tested on: DLD-1 colon
DMS 114 small cell lung = tested on: DMS 114 small cell lung
HS 578T breast = tested on: HS 578T breast
T-47D breast = tested on: T-47D breast
BT-549 breast = tested on: BT-549 breast
DU-145 prostate = tested on: DU-145 prostate
MDA-MB-435 = tested on: MDA-MB-435
PC-3 prostate = tested on: PC-3 prostate
MDA-MB-231 breast = tested on: MDA-MB-231 breast

## c1ccc2c(c1)nc1n2CSC1
SNB-78 CNS
  TGI: > 100 µM
KM20L2 colon
  TGI: > 100 µM
XF 498 CNS
  TGI: > 100 µM
DLD-1 colon
  TGI: > 100 µM
DMS 114 small cell lung
  TGI: > 100 µM

## CC1=C[C@]2(CC(C)C3C(CC4(C)C5CCC6C(C)(C)C(=O)CC[C@@]67C[C@@]57CC[C@]34C)O2)OC1=O (stereo partly specified)
SNB-78 CNS
  TGI: 71.9 µM
XF 498 CNS
  TGI: 30 µM
DLD-1 colon
  TGI: > 100 µM
DMS 114 small cell lung
  TGI: 77.1 µM

## Cc1nc2ccccc2c(=O)n1CC(=O)O
SNB-78 CNS
  TGI: > 100 µM
KM20L2 colon
  TGI: > 100 µM
XF 498 CNS
  TGI: > 100 µM
DLD-1 colon
  TGI: > 100 µM
DMS 114 small cell lung
  TGI: > 100 µM

## CCN(CC)CCCC(Nc1c2ccc(Cl)cc2nc2ccc(OC)cc12)c1ccc(F)cc1 (stereo unspecified)
HS 578T breast
  GI50: 1.69 µM
  TGI: 4.17 µM
T-47D breast
  GI50: 2.15 µM
  TGI: 5.66 µM
BT-549 breast
  GI50: 12.8 µM
  TGI: 26.4 µM
DU-145 prostate
  GI50: 3.23 µM
  TGI: 10.4 µM
MDA-MB-435
  GI50: 1.73 µM
  TGI: 3.2 µM
PC-3 prostate
  GI50: 2.7 µM
  TGI: 9.22 µM
MDA-MB-231 breast
  GI50: 1.47 µM
  TGI: 3.08 µM

## Cc1cccc2c(N)c3cccc(C(=O)NCCN(C)C)c3nc12
T-47D breast
  TGI: 0.513 µM
BT-549 breast
  TGI: 4.16 µM
DU-145 prostate
  TGI: 0.639 µM
MDA-MB-435
  TGI: 0.321 µM
PC-3 prostate
  TGI: 0.357 µM
MDA-MB-231 breast
  TGI: 0.275 µM

## CCCCN(CCCC)CCCCNc1c(C)cnc2cc(Cl)ccc12
SNB-78 CNS
  TGI: > 100 µM
KM20L2 colon
  TGI: 36.7 µM
XF 498 CNS
  TGI: 28.6 µM
DMS 114 small cell lung
  TGI: 56.9 µM

## Nc1ncnc2c1ncn2C1CCC(CO)O1 (stereo unspecified)
SNB-78 CNS
  TGI: > 100 µM
KM20L2 colon
  TGI: > 100 µM
XF 498 CNS
  TGI: > 100 µM
DLD-1 colon
  TGI: > 100 µM
DMS 114 small cell lung
  TGI: > 74.1 µM

## [C-]#[O+].[Cl][Sn]([Cl])[Cl].[Cl][Sn]([Cl])[Cl].[Pt].c1ccncc1
KM20L2 colon
  TGI: > 100 µM
DLD-1 colon
  TGI: > 100 µM

## CO/N=C1/c2sccc2[C@H](NC(=O)C(F)(F)F)[C@@H]1O
HS 578T breast
  TGI: > 100 µM
T-47D breast
  TGI: > 100 µM
BT-549 breast
  TGI: > 100 µM
DU-145 prostate
  TGI: > 100 µM
MDA-MB-435
  TGI: > 100 µM
PC-3 prostate
  TGI: > 100 µM
MDA-MB-231 breast
  TGI: > 100 µM

## CCOc1ccc(/C=C/[N+](=O)[O-])cc1
HS 578T breast
  GI50: 35.3 µM
  TGI: > 100 µM
T-47D breast
  GI50: 17.6 µM
  TGI: 42.8 µM
DU-145 prostate
  GI50: 10.4 µM
  TGI: 22.2 µM
MDA-MB-435
  GI50: 3.18 µM
  TGI: 13.7 µM
PC-3 prostate
  GI50: 12.4 µM
  TGI: 33.7 µM
MDA-MB-231 breast
  GI50: 7.91 µM
  TGI: 20.9 µM

## CC(/C=C/c1ccc([N+](=O)[O-])o1)=N/N1CC(CN2CCOCC2)OC1=O (stereo unspecified)
HS 578T breast
  TGI: > 100 µM
T-47D breast
  TGI: 41.2 µM
BT-549 breast
  TGI: 24.2 µM
DU-145 prostate
  TGI: 60.4 µM
MDA-MB-435
  TGI: 42.2 µM
PC-3 prostate
  TGI: 68 µM
MDA-MB-231 breast
  TGI: > 100 µM

## CCOP(=O)(OCC)C(Cc1ccc(OC)c(OC)c1)N=C(c1ccccc1)c1ccccc1 (stereo unspecified)
T-47D breast
  TGI: 56.8 µM
BT-549 breast
  TGI: > 100 µM
DU-145 prostate
  TGI: > 100 µM
MDA-MB-435
  TGI: > 100 µM
PC-3 prostate
  TGI: > 100 µM
MDA-MB-231 breast
  TGI: > 100 µM

## CC(C)=CCc1c(C)cc2cc3c(c(O)c2c1O)C(O)=CC(=O)C3(CC=C(C)C)C/C=C(\C)CO (stereo unspecified)
KM20L2 colon
  TGI: 76.6 µM
XF 498 CNS
  TGI: 53.5 µM
DLD-1 colon
  TGI: 70.9 µM
DMS 114 small cell lung
  TGI: 82 µM

## COc1cc2c3c(n(CCN(C)C)c(=O)c2cc1OC)-c1cc2c(cc1C3=O)OCO2
HS 578T breast
  GI50: > 84.9 µM
  TGI: > 100 µM
T-47D breast
  GI50: 27.1 µM
  TGI: > 100 µM
BT-549 breast
  GI50: > 47.7 µM
  TGI: > 100 µM
DU-145 prostate
  GI50: 0.218 µM
  TGI: > 22.5 µM
MDA-MB-435
  GI50: 6.08 µM
  TGI: > 77 µM
PC-3 prostate
  GI50: 31.4 µM
  TGI: > 100 µM
MDA-MB-231 breast
  TGI: > 32.1 µM

## COc1ccc(/C=N/NC(=O)NCCCN(C)C)cc1
SNB-78 CNS
  TGI: > 100 µM
XF 498 CNS
  TGI: > 100 µM
DLD-1 colon
  TGI: > 100 µM
DMS 114 small cell lung
  TGI: > 100 µM

## CN1CCN(Cc2ccc(NC(=O)c3ccc(C#N)c(C#Cc4cnc(N)c5ncccc45)c3)cc2C(F)(F)F)CC1
T-47D breast
  GI50: 28.6 µM
  TGI: > 100 µM
BT-549 breast
  GI50: 12.7 µM
  TGI: 41.9 µM

## CC(C)=CC(=O)OC1C2C(C)C(=O)OC2C(O)C(C)C2C=CC(=O)C21C (stereo unspecified)
SNB-78 CNS
  TGI: 9.88 µM
KM20L2 colon
  TGI: 7.76 µM
XF 498 CNS
  TGI: 9.77 µM
DLD-1 colon
  TGI: 3.9 µM
DMS 114 small cell lung
  TGI: 7.19 µM

## C[C@]12C=CC(=O)C=C1CC[C@@H]1[C@@H]2C(=O)C[C@@]2(C)[C@H]1CC[C@]2(O)C(=O)CO
HS 578T breast
  TGI: > 100 µM
T-47D breast
  TGI: > 100 µM
BT-549 breast
  TGI: > 100 µM
DU-145 prostate
  TGI: > 100 µM
MDA-MB-435
  TGI: > 100 µM
PC-3 prostate
  TGI: > 100 µM
MDA-MB-231 breast
  TGI: > 100 µM

## Cc1ccc(S(=O)(=O)Oc2cc(S(=O)(=O)O)cc3cc(S(=O)(=O)O)cc(N)c23)cc1
HS 578T breast
  TGI: > 100 µM
T-47D breast
  TGI: > 100 µM
BT-549 breast
  TGI: > 100 µM
DU-145 prostate
  TGI: > 100 µM
MDA-MB-435
  TGI: > 100 µM
PC-3 prostate
  TGI: > 100 µM
MDA-MB-231 breast
  TGI: > 100 µM

Source: PubChem BioAssay (NCI)
